Test results reported in patent publication US20060293307A1, “Oxazolidinone derivatives as antimicrobials” (priority 2002, published 2006).
Converted amounts (≈) assume the structure as drawn. Read-outs that look alike come from different tables or passages of the source.

Assays:
Test in all cases: MIC, agar incorporation method
S. pneumoniae 217 = assay type: cell-based, Streptococcus pneumoniae; details: S. No. 38, S. pneumoniae 217
S. pneumoniae AB 34 = assay type: cell-based, Streptococcus pneumoniae; details: S. No. 49, S. pneumoniae AB 34
E. faecium 6A (VRE) = assay type: cell-based, Enterococcus faecium; details: S. No. 21, E. faecium 6A (VRE)
S. pneumoniae AB 22 = assay type: cell-based, Streptococcus pneumoniae; details: S. No. 42, S. pneumoniae AB 22
S. pneumoniae AB 21 = assay type: cell-based, Streptococcus pneumoniae; details: S. No. 41, S. pneumoniae AB 21
S. aureus (MRSA) 15187 = assay type: cell-based, Staphylococcus aureus; details: S. No. 4, S. aureus (MRSA) 15187
Acinetobacter 9956 = assay type: cell-based; details: S. No. 30, Acinetobacter 9956
S. pyogenes 25147 = assay type: cell-based, Streptococcus pyogenes; details: S. No. 52, S. pyogenes 25147
Moraxella M1 = assay type: cell-based; details: S. No. 58, Moraxella M1
Salmonella 205 = assay type: cell-based; details: S. No. 26, Salmonella 205
Protocol: The compounds of the invention display antibacterial activity when tested by the agar incorporation method. The following minimum inhibitory concentrations (μg/ml) were obtained for representative compounds of the invention which are given below in the following tables.
Briefly, the compounds were dissolved in DMSO and doubling dilution of the compounds were incorporated into Meer Hilton agar before solidification. Inoculum was prepared by suspending 4 to 5 colonies into 5 ml of normal saline solution and adjusting the turbidity to 0.5 Macfarland turbidity standard tables (1.5×10^8 CFU/ml), after appropriate dilutions, 10^4 CFU/spot was transfered into the surface of dried plate and incubated for 18 hours (24 hours for MRSN studies). The concentration showing no growth of the inoculated culture was recorded as the MIC. Appropriate ATCC standard strains were simultaneously tested and result recorded only when the MIC's against standard antibiotics were within the acceptable range.

S. pneumoniae CS 1687 = assay type: cell-based, Streptococcus pneumoniae; details: S. No. 44, S. pneumoniae CS 1687
S. pneumoniae CS1221 = assay type: cell-based, Streptococcus pneumoniae; details: S. No. 34, S. pneumoniae CS1221
S. pneumoniae ATCC 49619 = assay type: cell-based, Streptococcus pneumoniae; details: S. No. 48, S. pneumoniae ATCC 49619
S. pneumoniae 1251 = assay type: cell-based, Streptococcus pneumoniae; details: S. No. 54, S. pneumoniae 1251
S. haemo ATCC 29970 = assay type: cell-based; details: S. No. 15, S. haemo ATCC 29970
S. epidermidis 823 = assay type: cell-based, Staphylococcus epidermidis; details: S. No. 12, S. epidermidis 823
S. pneumoniae AB 31 = assay type: cell-based, Streptococcus pneumoniae; details: S. No. 36, S. pneumoniae AB 31
E. faecium 398(VRE) = assay type: cell-based, Enterococcus faecium; details: S. No. 22, E. faecium 398(VRE)
S. pneumoniae AB 14 = assay type: cell-based, Streptococcus pneumoniae; details: S. No. 37, S. pneumoniae AB 14
E. coli 25922 = assay type: cell-based; details: S. No. 25, E. coli 25922
[1] = system: Serratia marcescens 12999; assay type: cell-based; details: S. No. 29, Serratia marcescens 12999
S. pneumoniae ATCC 6303 = assay type: cell-based, Streptococcus pneumoniae; details: S. No. 50, S. pneumoniae ATCC 6303
(MRSA) 562 = assay type: cell-based, Staphylococcus aureus; details: S. No. 8, (MRSA) 562
S. pneumoniae AB 16 = assay type: cell-based, Streptococcus pneumoniae; details: S. No. 39, S. pneumoniae AB 16
S. pneumoniae AB 25 = assay type: cell-based, Streptococcus pneumoniae; details: S. No. 45, S. pneumoniae AB 25
S. epidermidis 358 = assay type: cell-based, Staphylococcus epidermidis; details: S. No. 14, S. epidermidis 358
S. aureus (MRSA) ST450 = assay type: cell-based, Staphylococcus aureus; details: S. No. 6, S. aureus (MRSA) ST450
S. aureus SG 511 = assay type: cell-based, Staphylococcus aureus; details: S. No. 3, S. aureus SG 511
S. aureus ATCC29213 = assay type: cell-based, Staphylococcus aureus; details: S. No. 2, S. aureus ATCC29213
E. durans 581 = assay type: cell-based; details: S. No. 24, E. durans 581
S. aureus (Smith 49951) = assay type: cell-based, Staphylococcus aureus; details: S. No. 9, S. aureus (Smith 49951)
[2] = system: S. epidermidis (MRSE)32965; assay type: cell-based, Staphylococcus epidermidis; details: S. No. 13, S. epidermidis (MRSE)32965
[3] = Streptococcus pneumoniae, read-out: MIC
[4] = Enterococcus faecium, read-out: MIC
[5] = Staphylococcus aureus, read-out: MIC
[6] = Staphylococcus epidermidis, read-out: MIC

CC(=O)NC[C@H]1CN(c2ccc(N3CCN(c4ccc([N+](=O)[O-])o4)CC3)c(F)c2)C(=O)O1 [Compound No. 4, (S)—N-[[3-[3-Fluoro-4-[4-(5-nitro-2-furyl)-1-piperazinyl]phenyl]-2-oxo-5-oxazolidinyl]methyl]acetamide]
MIC (S. pneumoniae 217; [3]): 4 µg/mL (≈ 8.94 µM) | MIC (S. pneumoniae AB 34; Streptococcus pneumoniae, AB34, read-out: MIC): 4 µg/mL (≈ 8.94 µM) | MIC (E. faecium 6A (VRE); [4]): 8 µg/mL (≈ 17.9 µM) | MIC (S. pneumoniae AB 22; Streptococcus pneumoniae, AB22, read-out: MIC): 8 µg/mL (≈ 17.9 µM) | MIC (S. pneumoniae AB 21; Streptococcus pneumoniae, AB21, read-out: MIC): 8 µg/mL (≈ 17.9 µM) | MIC (S. aureus (MRSA) 15187; [5]): 8 µg/mL (≈ 17.9 µM) | MIC (Acinetobacter 9956; read-out: MIC): > 16 µg/mL | MIC (S. pyogenes 25147; Streptococcus pyogenes, read-out: MIC): 4 µg/mL (≈ 8.94 µM) | MIC (Moraxella M1; read-out: MIC): > 16 µg/mL | MIC (Salmonella 205; read-out: MIC): > 16 µg/mL | MIC (S. pneumoniae CS 1687; Streptococcus pneumoniae, CS1687, read-out: MIC): 4 µg/mL (≈ 8.94 µM) | MIC (S. pneumoniae CS1221; [3]): 8 µg/mL (≈ 17.9 µM) | MIC (S. pneumoniae ATCC 49619; Streptococcus pneumoniae, ATCC49619, read-out: MIC): 4 µg/mL (≈ 8.94 µM) | MIC (S. pneumoniae 1251; [3]): 4 µg/mL (≈ 8.94 µM) | MIC (S. haemo ATCC 29970; read-out: MIC): 4 µg/mL (≈ 8.94 µM) | MIC (S. epidermidis 823; [6]): 4 µg/mL (≈ 8.94 µM) | MIC (S. pneumoniae AB 31; Streptococcus pneumoniae, AB31, read-out: MIC): 8 µg/mL (≈ 17.9 µM) | MIC (E. faecium 398(VRE); [4]): 4 µg/mL (≈ 8.94 µM) | MIC (S. pneumoniae AB 14; Streptococcus pneumoniae, AB14, read-out: MIC): 2 µg/mL (≈ 4.47 µM) | MIC (E. coli 25922; Escherichia coli, read-out: MIC): > 16 µg/mL | MIC ([1]; read-out: MIC): > 16 µg/mL | MIC (S. pneumoniae ATCC 6303; Streptococcus pneumoniae, ATCC6303, read-out: MIC): 4 µg/mL (≈ 8.94 µM) | MIC ((MRSA) 562; [5]): 16 µg/mL (≈ 35.8 µM) | MIC (S. pneumoniae AB 16; Streptococcus pneumoniae, AB16, read-out: MIC): 8 µg/mL (≈ 17.9 µM) | MIC (S. pneumoniae AB 25; Streptococcus pneumoniae, AB25, read-out: MIC): 4 µg/mL (≈ 8.94 µM) | MIC (S. epidermidis 358; [6]): 4 µg/mL (≈ 8.94 µM) | MIC (S. aureus (MRSA) ST450; [5]): 8 µg/mL (≈ 17.9 µM) | MIC (S. aureus SG 511; Staphylococcus aureus, SG511, read-out: MIC): 16 µg/mL (≈ 35.8 µM) | MIC (S. aureus ATCC29213; [5]): 16 µg/mL (≈ 35.8 µM) | MIC (E. durans 581; Enterococcus durans, read-out: MIC): 4 µg/mL (≈ 8.94 µM) | MIC (S. aureus (Smith 49951); [5]): 16 µg/mL (≈ 35.8 µM) | MIC [2, 6]: 4 µg/mL (≈ 8.94 µM)

CC(=O)NC[C@H]1CN(c2ccc(N3CCN(c4cc(C(OC(C)=O)OC(C)=O)sc4[N+](=O)[O-])CC3)c(F)c2)C(=O)O1 [Compound No. 5, (S)—N-[[3-[3-Fluoro-4-[4-{3-thienyl(2-nitro)-5-acetyloxy}methylacetate]-1-piperazinyl]phenyl]-2-oxo-5-oxazolidinyl]acetamide]
MIC (S. pneumoniae 217): 0.5 µg/mL (≈ 0.842 µM) | MIC (S. pneumoniae AB 34): 0.5 µg/mL (≈ 0.842 µM) | MIC (E. faecium 6A (VRE)): 2 µg/mL (≈ 3.37 µM) | MIC (S. pneumoniae AB 22): 0.5 µg/mL (≈ 0.842 µM) | MIC (S. pneumoniae AB 21): 0.5 µg/mL (≈ 0.842 µM) | MIC (S. aureus (MRSA) 15187): 0.25 µg/mL (≈ 0.421 µM) | MIC (Acinetobacter 9956): >8 µg/mL | MIC (S. pyogenes 25147): 0.5 µg/mL (≈ 0.842 µM) | MIC (Moraxella M1): 4 µg/mL (≈ 6.74 µM) | MIC (Salmonella 205): >8 µg/mL | MIC (S. pneumoniae CS 1687): 0.5 µg/mL (≈ 0.842 µM) | MIC (S. pneumoniae CS1221): 0.5 µg/mL (≈ 0.842 µM) | MIC (S. pneumoniae ATCC 49619): 0.5 µg/mL (≈ 0.842 µM) | MIC (S. pneumoniae 1251): 0.5 µg/mL (≈ 0.842 µM) | MIC (S. haemo ATCC 29970): <0.06 µg/mL | MIC (S. epidermidis 823): <0.06 µg/mL | MIC (S. pneumoniae AB 31): 0.5 µg/mL (≈ 0.842 µM) | MIC (E. faecium 398(VRE)): 1 µg/mL (≈ 1.68 µM) | MIC (S. pneumoniae AB 14): 0.5 µg/mL (≈ 0.842 µM) | MIC (E. coli 25922): >8 µg/mL | MIC [1]: >8 µg/mL | MIC (S. pneumoniae ATCC 6303): 0.5 µg/mL (≈ 0.842 µM) | MIC ((MRSA) 562): 0.25 µg/mL (≈ 0.421 µM) | MIC (S. pneumoniae AB 16): 0.5 µg/mL (≈ 0.842 µM) | MIC (S. pneumoniae AB 25): 0.5 µg/mL (≈ 0.842 µM) | MIC (S. epidermidis 358): <0.06 µg/mL | MIC (S. aureus (MRSA) ST450): 1 µg/mL (≈ 1.68 µM) | MIC (S. aureus SG 511): 0.25 µg/mL (≈ 0.421 µM) | MIC (S. aureus ATCC29213): 0.25 µg/mL (≈ 0.421 µM) | MIC (E. durans 581): 2 µg/mL (≈ 3.37 µM) | MIC (S. aureus (Smith 49951)): 0.25 µg/mL (≈ 0.421 µM) | MIC [2]: <0.06 µg/mL
